Patent US10517294B2, “Dihydrothiophene derivatives as insecticidal compounds” (priority 2012, dated 2019)

Assays:
Type in all cases: in vivo
Tetranychus urticae = Tetranychus urticae (two-spotted spider mite), sprayed bean leaf discs; conditions: foliar, 192 h, application rate 200 ppm, mixed ages on bean leaf discs, 8 days after infestation, read-out: control (mortality, mobile stages)
Method: Bean leaf discs on agar in 24-well microtiter plates were sprayed with aqueous test solutions prepared from 10′000 ppm DMSO stock solutions. After drying the leaf discs were infested with a mite population of mixed ages. The samples were assessed for mortality (mobile stages) 8 days after infestation.

Thrips tabaci = Thrips tabaci (onion thrips), sprayed sunflower leaf discs; conditions: foliar, 144 h, application rate 200 ppm, mixed ages on sunflower leaf discs, 6 days after infestation, read-out: control (mortality)
Method: Sunflower leaf discs were placed on agar in 24-well microtiter plates and sprayed with aqueous test solutions prepared from 10′000 ppm DMSO stock solutions. After drying the leaf discs were infested with a thrips population of mixed ages. The samples were assessed for mortality 6 days after infestation.

Spodoptera littoralis = Spodoptera littoralis (Egyptian cotton leaf worm), sprayed cotton leaf discs; conditions: foliar, 72 h, application rate 200 ppm, L1 larvae on cotton leaf discs, 3 days after infestation, read-out: control (at least one of mortality, anti-feedant effect, growth inhibition)
Method: Cotton leaf discs were placed on agar in 24-well microtiter plates and sprayed with aqueous test solutions prepared from 10′000 ppm DMSO stock solutions. After drying the leaf discs were infested with five L1 larvae. The samples were assessed for mortality, anti-feedant effect, and growth inhibition 3 days after infestation. Control of Spodoptera littoralis by a test sample is noted when at least one of mortality, anti-feedant effect, and growth inhibition is better than the untreated sample.

Plutella xylostella = Plutella xylostella (diamond back moth), artificial diet; conditions: 120 h, application rate 200 ppm, L2 larvae on artificial diet, 5 days after infestation, read-out: control (at least one of mortality, growth inhibition)
Method: 24-well microtiter plates with artificial diet were treated with aqueous test solutions prepared from 10′000 ppm DMSO stock solutions by pipetting. After drying, the plates were infested with L2 larvae (10 to 15 per well). The samples were assessed for mortality and growth inhibition 5 days after infestation. Control of Plutella xyllostella by a test sample is noted when at least one of mortality and growth inhibition is better than the untreated sample.

Heliothis virescens = Heliothis virescens (tobacco budworm), eggs on artificial diet; conditions: application rate 200 ppm, eggs 0-24 h old on artificial diet, 5 days after infestation, read-out: control (at least one of egg mortality, larval mortality, growth inhibition)
Method: Eggs (0-24 h old) were placed in 24-well microtiter plates on artificial diet and treated with aqueous test solutions prepared from 10′000 ppm DMSO stock solutions by pipetting. The samples were assessed for egg mortality, larval mortality and growth inhibition 5 days after infestation. Control of Heliothis virescens by a test sample is noted when at least one of egg mortality, larval mortality and growth inhibition is better than the untreated sample.

Diabrotica balteata = Diabrotica balteata (corn root worm), sprayed maize sprouts; conditions: 96 h, application rate 200 ppm, L2 larvae on sprayed maize sprouts, 4 days after infestation, read-out: control (at least one of mortality, growth inhibition)
Method: Maize sprouts, placed on an agar layer in 24-well microtiter plates were treated with aqueous test solutions prepared from 10′000 ppm DMSO stock solutions by spraying. After drying, the plates were infested with L2 larvae (6 to 10 per well). The samples were assessed for mortality and growth inhibition 4 days after infestation. Control of Diabrotica balteata by a test sample is noted when at least one of mortality and growth inhibition is better than the untreated sample.

CCN1OC[C@@H](NC(=O)c2ccc(C3=CS[C@](c4cc(Cl)cc(Cl)c4)(C(F)(F)F)C3)cc2C)C1=O [Compound D3, 4-[(2R)-2-(3,5-dichlorophenyl)-2-(trifluoromethyl)-3H-thiophen-4-yl]-N-[(4R)-2-ethyl-3-oxo-isoxazolidin-4-yl]-2-methyl-benzamide]
≥ 80%: mortality at 200 ppm (Tetranychus urticae) | mortality at 200 ppm (Thrips tabaci) | percent control (mortality, anti-feedant effect or growth inhibition) at 200 ppm (Spodoptera littoralis) | mortality at 200 ppm (Plutella xylostella) | mortality at 200 ppm (Heliothis virescens) | mortality at 200 ppm (Diabrotica balteata)

Cc1cc(C2=CS[C@](c3cc(Cl)cc(Cl)c3)(C(F)(F)F)C2)ccc1C(=O)N[C@H]1C[S@@+]([O-])C1 [Compound D4, 4-[(2R)-2-(3,5-dichlorophenyl)-2-(trifluoromethyl)-3H-thiophen-4-yl]-2-methyl-N-(1-oxothietan-3-yl)benzamide]
≥ 80%: mortality at 200 ppm (Tetranychus urticae) | mortality at 200 ppm (Thrips tabaci) | percent control (mortality, anti-feedant effect or growth inhibition) at 200 ppm (Spodoptera littoralis) | mortality at 200 ppm (Plutella xylostella) | mortality at 200 ppm (Heliothis virescens) | mortality at 200 ppm (Diabrotica balteata)
